Data taken from PubChem BioAssay (NCI).
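Where inhibition never reached the appropriate level, the endpoint shown equals the highest concentration tested. Otherwise, values were interpolated linearly from a five-concentration, 48-hour dose response in 96-well plates. Here, GI50 denotes the concentration required for 50% inhibition of growth. Definition used: TGI = concentration required for complete inhibition of growth.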

What was measured:
Assay in all cases: NCI tumour cell line growth inhibition, 48 h
[1] = system: LOX IMVI melanoma
[2] = system: A498 renal
[3] = system: NCI-H522 lung
[4] = system: SR leukemia
[5] = system: NCI-H460 lung
[6] = system: EKVX NSCLC
[7] = system: SF-268 CNS
[8] = system: SK-MEL-2 melanoma
[9] = system: MDA-MB-231 breast
[10] = system: DU-145 prostate

SMILES	TGI [1] [µM]	TGI [2] [µM]	TGI [3] [µM]	TGI [4] [µM]	TGI [5] [µM]	TGI [6] [µM]	TGI [7] [µM]	TGI [8] [µM]	GI50 [1] [µM]	GI50 [2] [µM]	GI50 [3] [µM]	GI50 [5] [µM]	GI50 [6] [µM]	GI50 [7] [µM]	GI50 [8] [µM]	GI50 [9] [µM]	TGI [9] [µM]	GI50 [10] [µM]	TGI [10] [µM]	GI50 [4] [µM]
CNS(=O)(=O)NNS(=O)(=O)c1ccccc1	> 100	> 100	> 100	> 100	> 100	> 100	> 100	> 100												
O=C(Nc1nc2ccc([N+](=O)[O-])cc2s1)C(=O)C(C1OC(=O)c2ccccc21)[N+](=O)[O-] (centres undefined)	> 100	45		> 100	> 100	> 100	> 100	> 100												
Cc1ccc(S(=O)(=O)OC[C@@H]2CO2)cc1	> 100	> 100		> 100	> 100	> 100		> 100												
COc1ccccc1N1C(=O)C2c3[nH]c4ccccc4c3C3CCC(C(C)(C)C)CC3C2C1=O (centres undefined)		> 100	> 100	> 100		> 100	> 100													
COc1cc2ccnc([C@@H](OC(=O)c3ccccc3)c3ccc(OC)c(OC)c3OC)c2cc1OC	> 100	> 100	> 100		> 100	> 100	> 100	> 100												
CCn1c(C)nn2c(=O)c3ccccc3nc2c1=O	> 100	> 100			> 100	> 100		> 100												
CC1(C)C(=O)/C=C\C(=O)C(C)(C)C2=CC=C(O2)C(C)(C)C(=O)/C=C\C(=O)C(C)(C)C2=CC=C1O2	> 100	> 100	> 100	> 100	> 100	> 100	> 100	> 100												
CC(=O)[CH-]C(=O)c1ccccc1.CC(=O)[CH-]C(=O)c1ccccc1.CN(C)c1ccc([O-])cc1.CN(C)c1ccc([O-])cc1.Cl.[Ti+4]	> 100	> 100	24		> 31.6	> 31.6	> 31.6	> 31.6	26	31.1	12.3	15.1	24.6	> 31.6	> 31.6					
C=CCO[C@H]1CO[C@H]2[C@@H]1OC[C@@H]2Oc1ccc(Nc2ccnc(Nc3ccc(O[C@H]4CO[C@H]5[C@@H]4OC[C@@H]5OCC=C)c(Cl)c3)n2)cc1Cl	3.31		4.24		3.35	3.15	3.76	5.31	1.76		1.96	1.76	1.69	1.98	2.29	1.69	3.23	1.69	3.13	
CCN(CC)N=Nc1c(C(N)=O)n[nH]c1C	> 100	> 100	> 100		> 100	> 100	> 100	> 100									> 100		> 100	
Cc1c(C(=O)C/C(=N/NC(=O)c2ccccc2O)C(=O)Nc2ccccc2C(C)C)[n+](=O)c2ccccc2n1[O-]	> 100	> 100	65.8		> 100	> 100	> 100	8.81												
Cc1nc2c(ccc3ncccc32)[nH]1	> 100		> 100		> 100	> 100	> 100	> 100												
CC(C)=CCC\C(C)=C/C=C/C(C)=C\C=C\C(C)=C/C=C/C=C(C)\C=C\C=C(C)/C=C/C=C(/C)CCC=C(C)C	> 100	> 100		> 100		> 100	> 100	> 100									> 100		> 100	
CC1CCc2nc[nH]c(=O)c21 (centres undefined)	> 100	> 100	> 100		> 100		> 100	> 100	> 100	> 100	> 100	> 100		> 100	> 100	> 100	> 100	> 100	> 100	
OCc1cc2ccccc2c2c3c(ccc12)OCO3	118	39.5		76.8	752		117	84.9	35.7	13.1		28.5		33.8	32.2	29.1	175	44	170	28.4
COC1/C=C/OC2(C)Oc3c(C)c(O)c4c(O)c(c(/C=N/Nc5ccc([N+](=O)[O-])cc5[N+](=O)[O-])c(O)c4c3C2=O)NC(=O)C(C)=C/C=C/C(C)C(O)C(C)C(O)C(C)C(OC(C)=O)C1C (centres undefined)	2.32	14			14.7	> 50	11.4		1.03	6.87		5.22	4.75	1.59		1.32	4.01	2.55	9.32	
CCOC(=O)C(C)(C)Oc1ccc2c(-c3ccccc3)cc(=O)oc2c1	49.4	> 100		88.7	> 100	> 100	> 100	48.7												
O=C(O)CCC(NC(=O)c1ccc(Nc2nc3ccccc3nc2-c2cccs2)cc1)C(=O)O (centres undefined)	> 100	> 100	> 100	> 100	> 100	> 100	> 100	> 100												
FC(F)(F)c1cccc(Nc2nc(-c3ccccc3)nc3ncccc23)c1	24.6	5.21		13.3	12.6		44.3	25.5	4.48	1.7		3.45		6.76	6.57	4.88	41.2	4.72	21.8	2.61
Cc1nc2sccn2c1-c1csc(Nc2ccccc2Cl)n1	21.6	12.7	15.7		15.8		86.5	17.9	4.4	1.24	2.08	3.19		8.33	3.83	3.33	27	7.87	68.8	
